Data as given in patent publication US7521469B2, “Phosphinic amino acid compounds” (Les Laboratoires Servier, priority 2005, dated 2009).

Assays:
[1] = biological target: ACE (recombinant human form) (Homo sapiens, UniProt P12821); assay: In vitro inhibitory effect on angiotensin converting enzyme (ACE), quenched-fluorescence substrate; type: biochemical; conditions: inhibitor incubated with enzyme 45 minutes; substrate Mca-Arg-Pro-Pro-Gly-Phe-Ser-Pro-DpaCOOH 5 μM
Experimental: (§1) In vitro inhibitory effect on angiotensin converting enzyme (ACE) and endothelin converting enzyme (ECE)
(§2) In order to compare their specificity, the compounds of the Examples were tested on 2 enzymes: ACE (recombinant human form) and ECE (recombinant human form of the isoform ECE-1c).
(§3) The tests were carried out in duplicate in 96-well plates. The inhibitor was incubated together with the enzyme for 45 minutes before the addition of a quenched-fluorescence substrate. The fluorescence emitted was detected and measured in a Fluoroscan Ascent plate reader (Thermo-Labsystems).
(§4) The fluorogenic substrates used are: Mca-Arg-Pro-Pro-Gly-Phe-Ser-Pro-DpaCOOH (5 μM) with ACE, and Mca-Arg-Pro-Pro-Gly-Phe-Ser-Ala-Phc-Lys(Dnp)COOH (5 μM; R&D Systems) with ECE.

[2] = biological target: T1, ECE (recombinant human form of the isoform ECE-1c) (Homo sapiens, UniProt P42892); assay: In vitro inhibitory effect on endothelin converting enzyme (ECE), quenched-fluorescence substrate; type: biochemical; conditions: inhibitor incubated with enzyme 45 minutes; substrate Mca-Arg-Pro-Pro-Gly-Phe-Ser-Ala-Phc-Lys(Dnp)COOH 5 μM
T1 sequence (P42892 1-754 isoform P42892-3): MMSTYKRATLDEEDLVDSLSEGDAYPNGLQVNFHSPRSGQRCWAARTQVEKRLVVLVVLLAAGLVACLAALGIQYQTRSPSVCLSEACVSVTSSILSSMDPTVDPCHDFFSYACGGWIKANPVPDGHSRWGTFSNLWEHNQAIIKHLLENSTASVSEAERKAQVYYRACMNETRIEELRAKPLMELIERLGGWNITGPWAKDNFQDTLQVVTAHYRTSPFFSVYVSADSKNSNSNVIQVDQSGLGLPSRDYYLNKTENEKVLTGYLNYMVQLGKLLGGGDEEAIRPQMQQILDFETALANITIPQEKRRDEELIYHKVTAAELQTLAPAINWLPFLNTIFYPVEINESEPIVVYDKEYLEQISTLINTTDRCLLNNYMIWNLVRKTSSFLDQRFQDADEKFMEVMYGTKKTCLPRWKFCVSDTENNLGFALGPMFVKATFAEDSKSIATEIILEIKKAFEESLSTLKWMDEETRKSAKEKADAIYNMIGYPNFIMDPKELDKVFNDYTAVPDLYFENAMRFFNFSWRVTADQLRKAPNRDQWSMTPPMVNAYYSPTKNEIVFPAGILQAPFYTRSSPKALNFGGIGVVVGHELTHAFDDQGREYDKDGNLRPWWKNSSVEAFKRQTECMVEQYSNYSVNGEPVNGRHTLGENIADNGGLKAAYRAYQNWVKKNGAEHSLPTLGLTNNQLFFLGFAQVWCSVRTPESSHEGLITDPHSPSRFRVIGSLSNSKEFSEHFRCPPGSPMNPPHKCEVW
Experimental: as §1, §2, §3, §4

Sequence of ACE (recombinant human form) (P12821 30-1306): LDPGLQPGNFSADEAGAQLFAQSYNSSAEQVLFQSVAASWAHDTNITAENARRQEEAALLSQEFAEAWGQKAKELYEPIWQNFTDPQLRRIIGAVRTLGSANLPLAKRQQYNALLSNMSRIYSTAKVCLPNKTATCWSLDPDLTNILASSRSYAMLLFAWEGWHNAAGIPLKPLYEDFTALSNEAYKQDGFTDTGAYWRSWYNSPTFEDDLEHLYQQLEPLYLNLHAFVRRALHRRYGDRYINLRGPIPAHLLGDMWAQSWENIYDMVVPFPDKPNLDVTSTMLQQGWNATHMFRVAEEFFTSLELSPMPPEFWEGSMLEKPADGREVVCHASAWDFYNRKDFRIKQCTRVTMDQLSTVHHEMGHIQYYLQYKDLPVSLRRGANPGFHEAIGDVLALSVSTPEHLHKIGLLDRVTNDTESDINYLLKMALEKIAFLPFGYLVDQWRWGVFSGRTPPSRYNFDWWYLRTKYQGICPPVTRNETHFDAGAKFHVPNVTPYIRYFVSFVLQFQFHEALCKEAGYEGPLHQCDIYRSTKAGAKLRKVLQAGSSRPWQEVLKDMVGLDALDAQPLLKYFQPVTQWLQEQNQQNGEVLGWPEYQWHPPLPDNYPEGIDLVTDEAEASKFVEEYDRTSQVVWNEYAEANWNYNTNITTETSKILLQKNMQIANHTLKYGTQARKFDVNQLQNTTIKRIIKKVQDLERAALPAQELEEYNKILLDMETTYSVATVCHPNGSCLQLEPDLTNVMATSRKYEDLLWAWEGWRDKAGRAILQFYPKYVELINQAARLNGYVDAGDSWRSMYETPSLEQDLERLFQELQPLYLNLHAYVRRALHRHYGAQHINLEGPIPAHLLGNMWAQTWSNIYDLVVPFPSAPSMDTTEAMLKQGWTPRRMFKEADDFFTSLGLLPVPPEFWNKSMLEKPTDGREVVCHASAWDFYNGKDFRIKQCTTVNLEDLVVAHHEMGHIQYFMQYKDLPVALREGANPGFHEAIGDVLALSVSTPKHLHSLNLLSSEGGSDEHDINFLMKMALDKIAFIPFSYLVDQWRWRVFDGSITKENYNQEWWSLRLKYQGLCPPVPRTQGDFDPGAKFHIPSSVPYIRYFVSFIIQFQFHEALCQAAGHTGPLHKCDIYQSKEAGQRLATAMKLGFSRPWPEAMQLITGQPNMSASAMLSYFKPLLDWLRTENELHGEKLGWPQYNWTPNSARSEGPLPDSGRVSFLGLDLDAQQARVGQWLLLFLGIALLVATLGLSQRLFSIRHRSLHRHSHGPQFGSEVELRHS

| IC50 [1] | IC50 [2] | Compound |
| --- | --- | --- |
| 36 nM | 8 nM | O=C(N[C@@H](Cc1ccccc1)P(=O)(O)C[C@H](Cc1cc(-c2ccccc2)no1)C(=O)N[C@@H](Cc1c[nH]c2ccccc12)C(=O)O)OCc1ccccc1 [Example 1, (5R,8R,11S)-5-Benzyl-6-hydroxy-11-(1H-indol-3-ylmethyl)-3,9-dioxo-1-phenyl-8-[(3-phenyl-5-isoxazolyl)methyl]-2-oxa-4,10-diaza-6-phosphadodecan-12-oic acid 6-oxide] |
| 3.8 nM | 7.7 nM | O=C(N[C@@H](Cc1ccccc1)P(=O)(O)C[C@H](Cc1cc(-c2ccccc2)no1)C(=O)N[C@@H](Cc1ccccc1)C(=O)O)OCc1ccccc1 [Example 2, (5R,8R,11S)-5,11-Dibenzyl-6-hydroxy-3,9-dioxo-1-phenyl-8-[(3-phenyl-5-isoxazolyl)methyl]-2-oxa-4,10-diaza-6-phosphadodecan-12-oic acid 6-oxide] |
| 1.4 nM | 1.4 nM | O=C(N[C@@H](Cc1ccccc1)P(=O)(O)C[C@H](Cc1cc(-c2ccccc2)no1)C(=O)N[C@@H](Cc1ccc(O)cc1)C(=O)O)OCc1ccccc1 [Example 3, (5R,8R,11S)-5-Benzyl-6-hydroxy-11-(4-hydroxybenzyl)-3,9-dioxo-1-phenyl-8-[(3-phenyl-5-isoxazolyl)methyl]-2-oxa-4,10-diaza-6-phosphadodecan-12-oic acid 6-oxide] |
